Experimental data: ChEMBL document CHEMBL1909046, “DrugMatrix in vitro pharmacology data”
pIC50, pKi: −log10 of the molar value.

How the values were obtained:
[1] = target: Cytochrome P450 2E1 (Homo sapiens, UniProt P05181); conditions: bti-tn-5b1-4; also: in other assays of this panel Not Active means under 50% inhibition at 10 µM
[2] = target: T1, Substance-K receptor (Homo sapiens, UniProt P21452); assay type: cell membranes, CHO, Membrane; conditions: for IC50: cho; as to all read-outs here: in other assays of this panel Not Active means under 50% inhibition at 10 µM
T1 sequence (P21452 whole entry): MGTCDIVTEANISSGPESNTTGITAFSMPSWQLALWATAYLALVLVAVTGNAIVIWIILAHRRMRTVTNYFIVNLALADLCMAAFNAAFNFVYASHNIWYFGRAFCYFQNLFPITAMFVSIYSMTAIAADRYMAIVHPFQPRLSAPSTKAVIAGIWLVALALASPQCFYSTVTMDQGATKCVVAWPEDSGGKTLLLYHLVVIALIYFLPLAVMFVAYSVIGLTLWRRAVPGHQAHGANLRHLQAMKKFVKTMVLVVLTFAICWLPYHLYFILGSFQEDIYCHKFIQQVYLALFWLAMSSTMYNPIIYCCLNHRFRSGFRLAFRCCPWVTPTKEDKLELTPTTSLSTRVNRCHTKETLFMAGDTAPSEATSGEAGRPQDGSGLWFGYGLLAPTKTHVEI

[3] = DRUGMATRIX: Serotonin (5-Hydroxytryptamine) 5-HT3 radioligand binding (ligand: [3H] GR-65630); assay type: cell membranes, Membrane; conditions: hek293; Not Active = under 50% inhibition at 10 µM
[4] = target: Prostaglandin G/H synthase 1 (Homo sapiens, UniProt P23219); experiment: biochemical; assay type: tissue-based, Platelet; conditions: platelet;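 also: inhibition of COX-1 enzyme activity, with arachidonic acid supplied as substrate; in other assays of this panel Not Active means under 50% inhibition at 10 µM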
Prostaglandin G/H synthase 1, sequence (P23219 whole entry): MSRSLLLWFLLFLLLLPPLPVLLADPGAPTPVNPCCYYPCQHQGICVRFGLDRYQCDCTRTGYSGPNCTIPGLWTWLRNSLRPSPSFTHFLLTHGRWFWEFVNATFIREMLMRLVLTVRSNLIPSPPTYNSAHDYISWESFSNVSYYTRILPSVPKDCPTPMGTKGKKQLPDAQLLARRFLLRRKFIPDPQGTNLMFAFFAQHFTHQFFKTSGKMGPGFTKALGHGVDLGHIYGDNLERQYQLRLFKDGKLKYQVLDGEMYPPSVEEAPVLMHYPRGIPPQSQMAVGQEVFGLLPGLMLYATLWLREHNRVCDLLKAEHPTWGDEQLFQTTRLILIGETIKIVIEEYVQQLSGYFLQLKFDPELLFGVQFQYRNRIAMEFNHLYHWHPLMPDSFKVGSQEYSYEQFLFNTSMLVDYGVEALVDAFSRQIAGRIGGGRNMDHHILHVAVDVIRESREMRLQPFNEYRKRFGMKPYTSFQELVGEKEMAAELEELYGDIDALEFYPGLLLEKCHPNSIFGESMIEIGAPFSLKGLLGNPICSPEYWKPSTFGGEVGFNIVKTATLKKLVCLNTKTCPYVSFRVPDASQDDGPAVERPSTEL

[5] = DRUGMATRIX: Potassium Channel [KATP] radioligand binding (ligand: [3H] Glyburide); assay type: cell membranes, Membrane; conditions: hit-t15; Not Active = under 50% inhibition at 10 µM
[6] = target: Adenosine receptor A2a (Homo sapiens, UniProt P29274); experiment: DRUGMATRIX: Adenosine A2A radioligand binding (ligand: […]); assay type: cell membranes, HEK293, Membrane; conditions: Not Active = under 50% inhibition at 10 µM; for IC50: hek293; for pIC50: read-out: IC50; for pKi: read-out: Ki
Adenosine receptor A2a, sequence (P29274 whole entry): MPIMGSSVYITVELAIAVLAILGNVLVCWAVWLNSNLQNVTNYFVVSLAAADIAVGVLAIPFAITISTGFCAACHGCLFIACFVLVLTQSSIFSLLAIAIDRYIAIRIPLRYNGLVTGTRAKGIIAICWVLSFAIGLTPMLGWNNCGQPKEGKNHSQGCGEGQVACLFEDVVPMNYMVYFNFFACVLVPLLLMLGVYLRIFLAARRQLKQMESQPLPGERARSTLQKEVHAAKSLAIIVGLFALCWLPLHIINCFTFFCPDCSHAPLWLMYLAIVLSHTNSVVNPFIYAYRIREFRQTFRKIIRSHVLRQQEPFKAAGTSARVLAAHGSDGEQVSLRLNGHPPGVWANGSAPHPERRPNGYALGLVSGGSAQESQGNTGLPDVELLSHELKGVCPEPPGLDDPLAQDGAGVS

Cytochrome P450 2E1, sequence (P05181 whole entry): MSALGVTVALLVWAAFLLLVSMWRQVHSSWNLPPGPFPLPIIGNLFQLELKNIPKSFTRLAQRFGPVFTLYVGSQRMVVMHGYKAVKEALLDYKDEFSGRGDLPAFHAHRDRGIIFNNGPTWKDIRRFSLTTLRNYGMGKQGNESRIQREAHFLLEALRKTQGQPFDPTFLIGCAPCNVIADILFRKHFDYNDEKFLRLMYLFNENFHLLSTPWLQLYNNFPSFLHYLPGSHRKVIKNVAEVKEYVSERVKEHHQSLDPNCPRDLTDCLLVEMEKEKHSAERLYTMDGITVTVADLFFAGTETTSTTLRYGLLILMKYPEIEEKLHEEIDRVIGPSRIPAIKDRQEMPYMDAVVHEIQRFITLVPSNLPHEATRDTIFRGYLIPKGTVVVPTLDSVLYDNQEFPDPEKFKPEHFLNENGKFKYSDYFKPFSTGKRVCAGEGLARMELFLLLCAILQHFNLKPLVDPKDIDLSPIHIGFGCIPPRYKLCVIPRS

## O=c1cc(N2CCOCC2)oc2c(-c3ccccc3)cccc12 [LY-294002]
[1]
  IC50: Not Active
  Ki: Not Active
[2]
  IC50: Not Active
[3]
  IC50: Not Active
  Ki: Not Active
[4]
  IC50: Not Active
[5]
  IC50: Not Active
  Ki: Not Active
[6]
  IC50: Not Active

## COc1ccc2[nH]cc(CCNC(C)=O)c2c1 [MELATONIN]
[1]
  IC50: Not Active
  Ki: Not Active
[2]
  IC50: Not Active
[3]
  IC50: Not Active
  Ki: Not Active
[4]
  IC50: Not Active
[5]
  IC50: Not Active
  Ki: Not Active
[6]
  IC50: Not Active

## NC(=O)C[S+]([O-])C(c1ccccc1)c1ccccc1 (stereo unspecified) [MODAFINIL]
[1]
  IC50: Not Active
  Ki: Not Active
[2]
  IC50: Not Active
[3]
  IC50: Not Active
  Ki: Not Active
[4]
  IC50: Not Active
[5]
  IC50: Not Active
  Ki: Not Active
[6]
  IC50: Not Active

## CCN(CC)CCOCCC1=CCC2CC1C2(C)C (stereo unspecified) [MYRTECAINE]
[1]
  IC50: Not Active
  Ki: Not Active
[2]
  IC50: Not Active
[3]
  IC50: Not Active
  Ki: Not Active
[4]
  IC50: Not Active
[5]
  IC50: Not Active
  Ki: Not Active
[6]
  IC50: Not Active

## O=C(N/N=C/c1ccc([N+](=O)[O-])o1)c1cc([N+](=O)[O-])cc([N+](=O)[O-])c1O [NIFURSOL]
[1]
  IC50: Not Active
  Ki: Not Active
[2]
  IC50: Not Active
[3]
  IC50: Not Active
  Ki: Not Active
[4]
  IC50: Not Active
[5]
  IC50: Not Active
  Ki: Not Active
[6]
  IC50: Not Active

## COC(=O)Nc1nc2ccc(C(=O)c3cccs3)cc2[nH]1 [NOCODAZOLE]
[1]
  IC50: Not Active
  Ki: Not Active
[2]
  IC50: Not Active
[3]
  IC50: Not Active
  Ki: Not Active
[4]
  IC50: Not Active
[5]
  IC50: Not Active
  Ki: Not Active
[6]
  pIC50: 5.12
  pKi: 5.37

## C#CC1(O)CC[C@H]2[C@@H]3CCC4=CC(=O)CC[C@@H]4[C@H]3CC[C@@]21CC (stereo partly specified) [NORGESTREL]
[1]
  IC50: Not Active
  Ki: Not Active
[2]
  IC50: Not Active
[3]
  IC50: Not Active
  Ki: Not Active
[4]
  IC50: Not Active
[5]
  IC50: Not Active
  Ki: Not Active
[6]
  IC50: Not Active

## COC(=O)Nc1nc2ccc([S+]([O-])c3ccccc3)cc2[nH]1 (stereo unspecified) [OXFENDAZOLE]
[1]
  IC50: Not Active
  Ki: Not Active
[2]
  IC50: Not Active
[3]
  IC50: Not Active
  Ki: Not Active
[4]
  IC50: Not Active
[5]
  IC50: Not Active
  Ki: Not Active
[6]
  pIC50: 5.82
  pKi: 6.07

## CC(=O)O[C@H]1C(=O)[C@@]2(C)[C@H]([C@H](OC(=O)c3ccccc3)[C@]3(O)C[C@H](OC(=O)[C@H](O)[C@@H](NC(=O)c4ccccc4)c4ccccc4)C(C)=C1C3(C)C)[C@]1(OC(C)=O)CO[C@@H]1C[C@@H]2O [PACLITAXEL]
[1]
  IC50: Not Active
  Ki: Not Active
[2]; read-out: IC50
  pIC50: 5.21
[2]; read-out: Ki
  pKi: 5.69
[3]
  IC50: Not Active
  Ki: Not Active
[4]
  IC50: Not Active
[5]
  IC50: Not Active
  Ki: Not Active
[6]
  IC50: Not Active

## C[n+]1ccc(-c2cc[n+](C)cc2)cc1.[Cl-].[Cl-] [PARAQUAT DICHLORIDE]
[1]
  IC50: Not Active
  Ki: Not Active
[2]
  IC50: Not Active
[3]
  IC50: Not Active
  Ki: Not Active
[4]
  IC50: Not Active
[5]
  IC50: Not Active
  Ki: Not Active
[6]
  IC50: Not Active

## CCn1cc(C(=O)O)c(=O)c2cnc(N3CCCC3)nc21 [PIROMIDIC ACID]
[1]
  IC50: Not Active
  Ki: Not Active
[2]
  IC50: Not Active
[3]
  IC50: Not Active
  Ki: Not Active
[4]
  IC50: Not Active
[5]
  IC50: Not Active
  Ki: Not Active
[6]
  IC50: Not Active

## C[n+]1ccccc1/C=N/O.[Cl-] [PRALIDOXIME CHLORIDE]
[1]
  IC50: Not Active
  Ki: Not Active
[2]
  IC50: Not Active
[3]
  IC50: Not Active
  Ki: Not Active
[4]
  IC50: Not Active
[5]
  IC50: Not Active
  Ki: Not Active
[6]
  IC50: Not Active
